Experimental data reported in patent US9925189B2, “Heterocyclic receptor agonists for the treatment of diabetes and metabolic disorders” (CymaBay Therapeutics, Inc., priority 2006, dated 2018).

Target: T1, IC-GPCR2 (Homo sapiens, UniProt Q8TDV5, S309L)
T1 construct: expressed in transfected cells
T1 sequence (Q8TDV5 1-335 S309L): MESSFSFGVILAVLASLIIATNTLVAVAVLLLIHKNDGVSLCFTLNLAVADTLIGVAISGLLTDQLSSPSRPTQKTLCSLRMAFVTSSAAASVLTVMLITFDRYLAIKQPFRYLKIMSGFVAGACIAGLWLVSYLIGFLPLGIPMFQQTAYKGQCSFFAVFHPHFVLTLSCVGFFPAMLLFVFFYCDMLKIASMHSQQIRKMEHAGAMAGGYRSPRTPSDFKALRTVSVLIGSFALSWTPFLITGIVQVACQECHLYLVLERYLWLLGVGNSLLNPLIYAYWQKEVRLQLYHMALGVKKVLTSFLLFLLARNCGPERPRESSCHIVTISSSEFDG
Assay: Stimulation of cAMP in CHO cells stably expressing IC-GPCR2 (HTRF cAMP assay)
Assay type: cell-based
Details: 0.5 h, 30 minutes, IC-GPCR2 stably expressing CHO cells, read-out: Activity at 10 uM (% change in FRET signal from DMSO control)
In short: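 CHO cells stably expressing IC-GPCR2, plated at 17500 cells/well, treated next day for 30 min in Ham's F12 with compounds at 6–8 concentrations from 0.00003 to 10 μM; parental CHO cells also screened. Intracellular cAMP read by HTRF competitive immunoassay (665/620 nm ratio). Activity given as % FRET change from DMSO control.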

Row | activation at 10 µM [%] | Structure (SMILES)
1 | 49 | CC(C)(C)OC(=O)N1CCC(O)(c2nc(COc3ccc(S(C)(=O)=O)cc3)cs2)CC1 [Example 86, 4-Hydroxy-4-[4-(4-methanesulfonyl-phenoxymethyl)-thiazol-2-yl]-piperidine-1-carboxylic acid tert-butyl ester]
2 | 62 | CC(C)(C)OC(=O)N1CCC(F)(c2nc(COc3ccc(S(C)(=O)=O)cc3)cs2)CC1 [Example 87, 4-Fluoro-4-[4-(4-methanesulfonyl-phenoxymethyl)-thiazol-2-yl]-piperidine-1-carboxylic acid tert-butyl ester]
3 | 49 | CCc1cnc(N2CCC(F)(c3nc(COc4ccc(S(C)(=O)=O)cc4)cs3)CC2)nc1 [Example 88, 5-Ethyl-2-{4-fluoro-4-[4-(4-methanesulfonyl-phenoxymethyl)-thiazol-2-yl]-piperidin-1-yl}-pyrimidine]
4 | 64 | CCc1cnc(N2CCC(F)(c3ncc(COc4ccc(S(C)(=O)=O)cc4)s3)CC2)nc1 [Example 90, 5-Ethyl-2-{4-fluoro-4-[5-(4-methanesulfonyl-phenoxymethyl)-thiazol-2-yl]-piperidin-1-yl}-pyrimidine]
5 | 28 | CC(C)(C)OC(=O)N1CCN(c2nc(COc3ccc(S(C)(=O)=O)cc3)cs2)CC1 [Example 91, 4-[4-(4-Methanesulfonyl-phenoxymethyl)-thiazol-2-yl]-piperazine-1-carboxylic acid tert-butyl ester]
6 | 14 | CC(C)CS(=O)(=O)N1CCN(c2nc(COc3ccc(S(C)(=O)=O)cc3)cs2)CC1 [Example 92, 1-[4-(4-Methanesulfonyl-phenoxymethyl)-thiazol-2-yl]-4-(2-methyl-propane-1-sulfonyl)-piperazine]
7 | 48 | CC(C)(C)OC(=O)N1CCC(c2nc(CNc3ccc(F)nc3)cs2)CC1 [Example 94, 4-{4-[(6-Fluoro-pyridin-3-ylamino)-methyl]-thiazol-2-yl}-piperidine-1-carboxylic acid tert-butyl ester]
8 | 63 | CC(C)c1noc(N2CCC(c3nc(COc4ccc(-n5cnnn5)cc4)cs3)CC2)n1 [Example 95, 1-(3-Isopropyl-[1,2,4]oxadiazol-5-yl)-4-[4-(4-tetrazol-1-yl-phenoxymethyl)-thiazol-2-yl]-piperidine]
9 | 79 | CCc1noc(N2CCC(c3nc(COc4ccc(-n5cnnn5)cc4)cs3)CC2)n1 [Example 96, 1-(3-Ethyl-[1,2,4]oxadiazol-5-yl)-4-[4-(4-tetrazol-1-yl-phenoxymethyl)-thiazol-2-yl]-piperidine]
10 | 52 | c1cc(-n2cnnn2)ccc1OCc1csc(C2CCN(c3nc(C4CC4)no3)CC2)n1 [Example 97, 1-(3-Cyclopropyl-[1,2,4]oxadiazol-5-yl)-4-[4-(4-tetrazol-1-yl-phenoxymethyl)-thiazol-2-yl]-piperidine]
11 | 78 | FC(F)(F)c1noc(N2CCC(c3nc(COc4ccc(-n5cnnn5)cc4)cs3)CC2)n1 [Example 98, 4-[4-(4-Tetrazol-1-yl-phenoxymethyl)-thiazol-2-yl]-1-(3-trifluoromethyl-[1,2,4]oxadiazol-5-yl)-piperidine]
12 | 67 | NC(=O)N1CCC(c2nc(COc3ccc(-n4cnnn4)cc3)cs2)CC1 [Example 99, 4-[4-(4-Tetrazol-1-yl-phenoxymethyl)-thiazol-2-yl]-piperidine-1-carboxylic acid amide]
13 | 44 | CC(C)(C)OC(=O)N1CC(c2nc(COc3ccc(-n4cnnn4)cc3)cs2)C1 [Example 101, 3-[4-(4-tetrazol-1-yl-phenoxymethyl)-thiazol-2-yl]-azetidine-1-carboxylic acid tert-butyl ester]
14 | 49 | CC(C)(C)OC(=O)N1CCC(c2nc(COc3ccc(-n4cnnn4)cc3)cs2)C1 (centres unmarked) [Example 102, 3-[4-(4-Tetrazol-1-yl-phenoxymethyl)-thiazol-2-yl]-pyrrolidine-1-carboxylic acid tert-butyl ester]
15 | 79 | CCc1cnc(N2CCC(c3nc(COc4ccc(-n5cnnn5)cc4)cs3)C2)nc1 (centres unmarked) [Example 103, 5-Ethyl-2-{3-[4-(4-tetrazol-1-yl-phenoxymethyl)-thiazol-2-yl]-pyrrolidin-1-yl}-pyrimidine]
16 | 76 | CC(C)(C)OC(=O)N1CCCC(c2nc(COc3ccc(-n4cnnn4)cc3)cs2)C1 (centres unmarked) [Example 104, 3-[4-(4-Tetrazol-1-yl-phenoxymethyl)-thiazol-2-yl]-piperidine-1-carboxylic acid tert-butyl ester]
17 | 52 | CCc1cnc(N2CCCC(c3nc(COc4ccc(-n5cnnn5)cc4)cs3)C2)nc1 (centres unmarked) [Example 105, 5-Ethyl-2-{3-[4-(4-tetrazol-1-yl-phenoxymethyl)-thiazol-2-yl]-piperidin-1-yl}-pyrimidine]
18 | 71 | CC(C)(C)OC(=O)N1CCC(c2nc(COCc3ccc(S(C)(=O)=O)cc3)cs2)CC1 [Example 106, 4-[4-(4-Methanesulfonyl-benzyloxymethyl)-thiazol-2-yl]-piperidine-1-carboxylic acid tert-butyl ester]
19 | 53 | Nc1cnc(N2CCC(c3nc(COc4ccc(-n5cnnn5)cc4)cs3)CC2)nc1 [Example 107, 2-{4-[4-(4-Tetrazol-1-yl-phenoxymethyl)-thiazol-2-yl]-piperidin-1-yl}-pyrimidin-5-ylamine]
20 | 38 | CC(C)(C)OC(=O)N1CCC(c2nc(C(=O)Nc3ccc(-n4cnnn4)cc3)cs2)CC1 [Example 109, 4-[4-(4-Tetrazol-1-yl-phenylcarbamoyl)-thiazol-2-yl]-piperidine-1-carboxylic acid tert-butyl ester]
21 | 51 | CC(C)(C)OC(=O)N1CCC(c2nc(COc3ccc(S(=O)(=O)C(F)(F)F)cc3)cs2)CC1 [Example 110, 4-[4-(4-Trifluoromethanesulfonyl-phenoxymethyl)-thiazol-2-yl]-piperidine-1-carboxylic acid tert-butyl ester]
22 | 68 | CC(C)(C)OC(=O)N1CCC(c2nc(COc3ccc([S+]([O-])C(F)(F)F)cc3)cs2)CC1 (centres unmarked) [Example 111, 4-[4-(4-Trifluoromethanesulfinyl-phenoxymethyl)-thiazol-2-yl]-piperidine-1-carboxylic acid tert-butyl ester]
23 | 57 | CC(C)(C)OC(=O)N1CCC(c2nc(COc3c(F)cc(-n4cnnn4)cc3F)cs2)CC1 [Example 112, 4-[4-(2,6-Difluoro-4-tetrazol-1-yl-phenoxymethyl)-thiazol-2-yl]-piperidine-1-carboxylic acid tert-butyl ester]
24 | 60 | CC(C)(C)OC(=O)N1CCC(c2nc(COc3ccc(-n4cccc4)cc3)cs2)CC1 [Example 113, 4-[4-(4-Pyrrol-1-yl-phenoxymethyl)-thiazol-2-yl]-piperidine-1-carboxylic acid tert-butyl ester]
25 | 68 | CC(C)(C)OC(=O)N1CCC(c2nc(CNc3ccc(-n4cnnn4)cc3)cs2)CC1 [Example 114, 4-{4-[(4-Tetrazol-1-yl-phenylamino)-methyl]-thiazol-2-yl}-piperidine-1-carboxylic acid tert-butyl ester]
26 | 67 | CCc1cnc(N2CCC(c3nc(COc4ccc(-n5cnnn5)c(Cl)c4)cs3)CC2)nc1 [Example 115, 2-{4-[4-(3-Chloro-4-tetrazol-1-yl-phenoxymethyl)-thiazol-2-yl]-piperidin-1-yl}-5-ethyl-pyrimidine]
